Marks after values point to notes of the source that are not given here.
Test: 4-week repeat-dose toxicology study in rats with 2-week recovery (Study 20000328)
Settings: for Died or Sacrificed Moribund: animals of 15
[1] = 62.5 mg/kg F, end of dosing, animals of 10
[2] = 62.5 mg/kg F, end of recovery, animals of 5
[3] = 62.5 mg/kg M, end of dosing, animals of 10

With `COC1=C(OC)C(=O)C(C/C=C(\C)CC/C=C(\C)CC/C=C(\C)CC/C=C(\C)CC/C=C(\C)CC/C=C(\C)CC/C=C(\C)CC/C=C(\C)CC/C=C(\C)CCC=C(C)C)=C(C)C1=O` [CoQ10, Coenzyme Q10] the “Died or Sacrificed Moribund” value (62.5 mg/kg F) was 0, the ALT (62.5 mg/kg F, end of dosing) was 19 IU/L and the APPT (62.5 mg/kg F, end of dosing) was 15.1 s. The AST (62.5 mg/kg F, end of dosing) was 67* IU/L, the “Body Weight, percent difference from controls” value (“Body Weight, percent difference” below) (62.5 mg/kg F, end of dosing) was −1.7% and the Eosinophils (62.5 mg/kg F, end of dosing) was 0.09 10^3/cmm. For the same compound, the Erythrocytes (62.5 mg/kg F, end of dosing) was 7.77* 10^6/cmm, the “Food Consumption, percent difference from controls” value (62.5 mg/kg F, end of dosing) was −4.0% and the GGT (62.5 mg/kg F, end of dosing) was 0.42 IU/L. For the same compound, the Hematocrit (62.5 mg/kg F, end of dosing) was 42.4* %, the Hemoglobin (62.5 mg/kg F, end of dosing) was 14.7* g/dL and the Leukocytes (62.5 mg/kg F, end of dosing) was 8.33 10^3/cmm. For the same compound, the “Liver weight (absolute), percent difference from controls” value (62.5 mg/kg F, end of dosing) was −6.1%, the Lymphocytes (62.5 mg/kg F, end of dosing) was 6.79 10^3/cmm and the Neutrophils (62.5 mg/kg F, end of dosing) was 1.06 10^3/cmm. For the same compound, the “Spleen weight (absolute), percent difference from controls” value (62.5 mg/kg F, end of dosing) was −48.2* %, the “Bone Marrow, Sternum Hyperplasia” value [1] was 0 and the “Bone Marrow, Sternum Hyperplasia, Mild” value [1] was 0. The “Bone Marrow, Sternum Hyperplasia, Minimal” value [1] was 0, the “Gross Pathology: Enlarged Pancreatic Lymph Nodes” value [1] was 0 and the “Gross Pathology: Pale Adrenal” value [1] was 0. The “Gross Pathology: Pale Liver” value [1] was 7, the “Gross Pathology: Pale Lymph Nodes” value [1] was 1 and the “Gross Pathology: Pale Ovaries” value [1] was 0. The “Gross Pathology: Pale Pituitary” value [1] was 0, the “Gross Pathology: Pale SQ Skin” value [1] was 0 and the “Liver Focal Necrosis” value [1] was 1. For the same compound, the “Liver Focal Necrosis, Minimal” value [1] was 1, the “Liver Histiocytic Infiltration” value [1] was 7 and the “Liver Histiocytic Infiltration, Mild” value [1] was 0. For the same compound, the “Liver Histiocytic Infiltration, Minimal” value [1] was 7, the “Liver Histiocytic Infiltration, Moderate” value [1] was 0 and the “Liver Vacuolation” value [1] was 7. For the same compound, the “Liver Vacuolation, Mild” value [1] was 0, the “Liver Vacuolation, Minimal” value [1] was 7 and the “Lymph Node, Man. Histiocytic Infiltration” value [1] was 4. The “Lymph Node, Man. Histiocytic Infiltration, Mild” value [1] was 0, the “Lymph Node, Man. Histiocytic Infiltration, Minimal” value [1] was 4 and the “Lymph Node, Man. Histiocytic Infiltration, Moderate” value [1] was 0. The “Lymph Node, Mes. Histiocytic Infiltration” value [1] was 9, the “Lymph Node, Mes. Histiocytic Infiltration, Mild” value [1] was 2 and the “Lymph Node, Mes. Histiocytic Infiltration, Minimal” value [1] was 7. For the same compound, the “Lymph Node, Mes. Histiocytic Infiltration, Moderate” value [1] was 0, the “Ovary Histiocytic Infiltration” value [1] was 0 and the “Ovary Histiocytic Infiltration, Mild” value [1] was 0. The “Ovary Histiocytic Infiltration, Minimal” value [1] was 0, the “Ovary Histiocytic Infiltration, Moderate” value [1] was 0 and the “Skin, Dermis Histiocytic Infiltration” value [1] was 0. For the same compound, the “Skin, Dermis Histiocytic Infiltration, Marked” value [1] was 0, the “Skin, Dermis Histiocytic Infiltration, Mild” value [1] was 0 and the “Skin, Dermis Histiocytic Infiltration, Moderate” value [1] was 0. For the same compound, the “Skin, SQ Histiocytic Infiltration” value [1] was 0, the “Skin, SQ Histiocytic Infiltration, Mild” value [1] was 0 and the “Spleen Histiocytic Infiltration” value [1] was 4. For the same compound, the “Spleen Histiocytic Infiltration, Marked” value [1] was 0, the “Spleen Histiocytic Infiltration, Mild” value [1] was 4 and the “Spleen Histiocytic Infiltration, Moderate” value [1] was 0. The ALT (62.5 mg/kg F, end of recovery) was 19 IU/L, the APPT (62.5 mg/kg F, end of recovery) was 14.4 s and the AST (62.5 mg/kg F, end of recovery) was 83 IU/L. The “Body Weight, percent difference” value (62.5 mg/kg F, end of recovery) was −0.9%, the “Food Consumption, percent difference from controls” value (62.5 mg/kg F, end of recovery) was −7.9% and the GGT (62.5 mg/kg F, end of recovery) was 0.12 IU/L. For the same compound, the “Liver weight (absolute), percent difference from controls” value (62.5 mg/kg F, end of recovery) was “+4.6%”, the “Spleen weight (absolute), percent difference from controls” value (62.5 mg/kg F, end of recovery) was “+0.5%” and the “Adrenal Gland Vacuolation” value [2] was 3. For the same compound, the “Adrenal Gland Vacuolation, Marked” value [2] was 0, the “Adrenal Gland Vacuolation, Mild” value [2] was 0 and the “Adrenal Gland Vacuolation, Minimal” value [2] was 3. The “Adrenal Gland Vacuolation, Moderate” value [2] was 0, the “Gross Pathology: Enlarged Spleen” value [2] was 0 and the “Gross Pathology: Pale Iliac Lymph Node” value [2] was 2. For the same compound, the “Gross Pathology: Pale Liver” value [2] was 3, the “Gross Pathology: Pale Ovaries” value [2] was 0 and the “Gross Pathology: Pale Pancreatic Lymph Node” value [2] was 1. For the same compound, the “Liver Focal Necrosis” value [2] was 0, the “Liver Focal Necrosis, Mild” value [2] was 0 and the “Liver Focal Necrosis, Minimal” value [2] was 0. For the same compound, the “Liver Histiocytic Infiltration” value [2] was 5, the “Liver Histiocytic Infiltration, Mild” value [2] was 2 and the “Liver Histiocytic Infiltration, Minimal” value [2] was 3. For the same compound, the “Liver Histiocytic Infiltration, Moderate” value [2] was 0, the “Liver Multifocal Necrosis” value [2] was 0 and the “Liver Multifocal Necrosis, Mild” value [2] was 0. For the same compound, the “Liver Multifocal Necrosis, Moderate” value [2] was 0, the “Liver Vacuolation” value [2] was 5 and the “Liver Vacuolation, Mild” value [2] was 2. The “Liver Vacuolation, Minimal” value [2] was 2, the “Liver Vacuolation, Moderate” value [2] was 1 and the “Lymph Node, Man. Histiocytic Infiltration” value [2] was 2. The “Lymph Node, Man. Histiocytic Infiltration, Mild” value [2] was 0, the “Lymph Node, Man. Histiocytic Infiltration, Minimal” value [2] was 2 and the “Lymph Node, Man. Histiocytic Infiltration, Moderate” value [2] was 0. For the same compound, the “Lymph Node, Mes. Histiocytic Infiltration” value [2] was 4, the “Lymph Node, Mes. Histiocytic Infiltration, Mild” value [2] was 0 and the “Lymph Node, Mes. Histiocytic Infiltration, Minimal” value [2] was 4. For the same compound, the “Ovary Histiocytic Infiltration” value [2] was 4, the “Ovary Histiocytic Infiltration, Mild” value [2] was 0 and the “Ovary Histiocytic Infiltration, Minimal” value [2] was 4. The “Ovary Histiocytic Infiltration, Moderate” value [2] was 0, the “Spleen Histiocytic Infiltration” value [2] was 3 and the “Spleen Histiocytic Infiltration, Marked” value [2] was 0. For the same compound, the “Spleen Histiocytic Infiltration, Mild” value [2] was 1, the “Spleen Histiocytic Infiltration, Minimal” value [2] was 2 and the “Spleen Histiocytic Infiltration, Moderate” value [2] was 0. For the same compound, the “Died or Sacrificed Moribund” value (62.5 mg/kg M) was 0, the ALT (62.5 mg/kg M, end of dosing) was 22 IU/L and the APPT (62.5 mg/kg M, end of dosing) was 17.6 s. The AST (62.5 mg/kg M, end of dosing) was 74 IU/L, the “Body Weight, percent difference” value (62.5 mg/kg M, end of dosing) was −0.5% and the Eosinophils (62.5 mg/kg M, end of dosing) was 0.09* 10^3/cmm. The Erythrocytes (62.5 mg/kg M, end of dosing) was 8.14* 10^6/cmm, the “Food Consumption, percent difference from controls” value (62.5 mg/kg M, end of dosing) was “+2.5%” and the GGT (62.5 mg/kg M, end of dosing) was 0.00 IU/L. For the same compound, the Hematocrit (62.5 mg/kg M, end of dosing) was 44.3%, the Hemoglobin (62.5 mg/kg M, end of dosing) was 15.1* g/dL and the Leukocytes (62.5 mg/kg M, end of dosing) was 8.56* 10^3/cmm. The “Liver weight (absolute), percent difference from controls” value (62.5 mg/kg M, end of dosing) was −5.5%, the Lymphocytes (62.5 mg/kg M, end of dosing) was 7.02* 10^3/cmm and the Neutrophils (62.5 mg/kg M, end of dosing) was 1.06 10^3/cmm. The “Spleen weight (absolute), percent difference from controls” value (62.5 mg/kg M, end of dosing) was −57.3* %, the “Bone Marrow, Sternum Hyperplasia” value [3] was 0 and the “Bone Marrow, Sternum Hyperplasia, Mild” value [3] was 0. For the same compound, the “Bone Marrow, Sternum Hyperplasia, Minimal” value [3] was 0, the “Gross Pathology: Enlarged Pancreatic Lymph Nodes” value [3] was 0 and the “Gross Pathology: Pale Adrenal” value [3] was 0. The “Gross Pathology: Pale Liver” value [3] was 9, the “Gross Pathology: Pale Lymph Nodes” value [3] was 0 and the “Gross Pathology: Pale Pituitary” value [3] was 0. For the same compound, the “Gross Pathology: Pale SQ Skin” value [3] was 1, the “Liver Focal Necrosis” value [3] was 0 and the “Liver Focal Necrosis, Minimal” value [3] was 0. The “Liver Histiocytic Infiltration” value [3] was 2, the “Liver Histiocytic Infiltration, Mild” value [3] was 1 and the “Liver Histiocytic Infiltration, Minimal” value [3] was 1. The “Liver Histiocytic Infiltration, Moderate” value [3] was 0, the “Liver Vacuolation” value [3] was 2 and the “Liver Vacuolation, Mild” value [3] was 0. The “Liver Vacuolation, Minimal” value [3] was 2, the “Lymph Node, Man. Histiocytic Infiltration” value [3] was 6 and the “Lymph Node, Man. Histiocytic Infiltration, Mild” value [3] was 1. The “Lymph Node, Man. Histiocytic Infiltration, Minimal” value [3] was 4, the “Lymph Node, Man. Histiocytic Infiltration, Moderate” value [3] was 1 and the “Lymph Node, Mes. Histiocytic Infiltration” value [3] was 9. The “Lymph Node, Mes. Histiocytic Infiltration, Mild” value [3] was 4, the “Lymph Node, Mes. Histiocytic Infiltration, Minimal” value [3] was 5 and the “Lymph Node, Mes. Histiocytic Infiltration, Moderate” value [3] was 0. The “Skin, Dermis Histiocytic Infiltration” value [3] was 0, the “Skin, Dermis Histiocytic Infiltration, Marked” value [3] was 0 and the “Skin, Dermis Histiocytic Infiltration, Mild” value [3] was 0. For the same compound, the “Skin, Dermis Histiocytic Infiltration, Moderate” value [3] was 0, the “Skin, SQ Histiocytic Infiltration” value [3] was 0 and the “Skin, SQ Histiocytic Infiltration, Mild” value [3] was 0. The “Spleen Histiocytic Infiltration” value [3] was 1 and the “Spleen Histiocytic Infiltration, Marked” value [3] was 0.

Source: US11400058B2, “Intravenous formulations of coenzyme Q10 (CoQ10) and methods of use thereof” (Berg LLC, priority 2010, dated 2022)
